# Assay results reported in patent US9968605B2, “2-(2-methylamino-pyrimidin-4-yl)-1h-indole-5-carboxylic acid [(S)-1-carbamoyl-2-(phenyl-pyrimidin-2-yl-amino)-ethyl]-amide for use in the treatment of pain associated to osteoarthritis” (SANOFI, priority 2014, dated 2018).
# Entries after “also recorded” stand apart in the source; their conditions may differ.
# Legend:
# patients with knee OA [1] = test: Clinical trial: WOMAC index scores after a single intra-articular dose in patients with knee OA; type: in vivo, human; conditions: for Total WOMAC score, absolute change from baseline, Estimate / WOMAC subscore for Pain, absolute change from baseline, Estimate / WOMAC subscore for Physical function, absolute change from baseline, Estimate / WOMAC subscore for Stiffness, absolute change from baseline, Estimate: 60 mg single intra-articular dose; for Total WOMAC score, Compound A 60 mg vs Placebo, Estimate / WOMAC subscore for Pain, Compound A 60 mg vs Placebo, Estimate / WOMAC subscore for Physical function, Compound A 60 mg vs Placebo, Estimate / WOMAC subscore for Stiffness, Compound A 60 mg vs Placebo, Estimate: difference in change from baseline; for WOMAC subscore for Stiffness, Effect size (90% CI): vs placebo
# Protocol: (§1) The objective of this study was to assess in patients with knee OA, the efficacy, safety and tolerability of a single intra-articular dose of Compound A.
# (§2) This was a two-center, double-blind, randomized, placebo controlled, single dose study. Following a review of the safety data up to Day 28 from Part 1 of this study, the second part of the study assessed the efficacy of a single dose of Compound A, selected from the maximum administered/tolerated dose from Part 1 (60 mg), in relieving symptoms of patients with knee OA.
# (§3) Screening was performed within 28 days of dosing. Following the single dose of study medication administered via intra-articular injection on Day 1, each patient remained at the Study Unit for 4 hours after dosing and, provided there was no difficulty with tolerability, patients were discharged and returned periodically for outpatient visits. Each patient was followed up to Day 168 (end-of-study visit); therefore the study period was 28 weeks.
# Compound A was supplied as a lyophilized cake (to be reconstituted in water for injection for intra-articular administration) in vials containing 20, 40 and 80 mg total of active Compound A. The placebo was commercially available 0.9% saline solution for the injection.
# The following sub-scales from the WOMAC Index were used to assess the activity of the drug upon pain, stiffness and physical function. Each item will be rated on the basis of the patient's symptoms over the last 48 h, by means of a 5 point Likert Scale: none, mild, moderate, severe, or very severe.
# The primary endpoint was the WOMAC Pain sub-scale at Day 56 for evidence of efficacy (change from baseline).
# Inclusion criteria are: • Diagnosis of primary knee osteoarthritis, based upon the following: • X-ray or MRI evidence within the last 6 months for joint space narrowing and osteophyte formation—patients will be Kellgren and Lawrence classification II/III, • Total WOMAC score 24-72 and • Fulfilling the American College of Rheumatology Clinical and Radiographic criteria for OA.
# Analysis of Efficacy Variables:
# Using the primary analysis efficacy population and for WOMAC sub-score for pain on Day 56, treatment mean differences (Compound A minus placebo) in change from baseline and their one-sided 95% upper limit of the confidence interval were computed using linear fixed effects models with fixed terms for treatment group and sex, and with an unstructured R variance/covariance matrix on treatment group for patient within sex blocks, using SAS Proc Mixed®. In case of convergence problems, other variance-covariance structures were explored.
# The signs and symptoms of OA were measured with a standard instrument as WOMAC index.
# WOMAC index consists of 24 questions in 3 dimensions subscales: • Pain subcale (5 items) • Stiffness subscale (2 items) • Physical function subscale (17 items)
# Each item was rated by means of a 5 point Likert scale: none (=0), mild (=1), moderate (=2), severe (=3) and very severe (=4) A total WOMAC score and a WOMAC subscore for each dimension was calculated.
# A supportive analysis to the primary analysis was conducted over patients from the efficacy population and with at least one post-dose WOMAC sub-score measurement, using a last observations carried forward (LOCF) approach up to Day 56.
# The total WOMAC score and WOMAC sub-score for stiffness and physical function were analysed in the same way as for the primary analysis of WOMAC sub-score for pain.
# The treatment mean difference between groups with their one-sided 95% upper limit of the CI was estimated for all other days for all scores. Time profile plots of treatment mean differences with their one-sided 95% upper limit of the CI were provided.
# For each WOMAC score (total and sub-scores), the effect size based on the estimated (within the fixed effects model frameworks) mean treatment difference in change from baseline between groups (active versus placebo) were provided at each day with their corresponding 95% CI.
# patients with knee OA [2] = test: Clinical trial: safety and tolerability of a single intra-articular dose in patients with knee OA; type: in vivo
# Protocol: as §1, §2, §3
# Safety was assessed by adverse event (AE) monitoring, standard clinical laboratory evaluations, physical examination, vital sign and electrocardiogram (ECG) assessments, local tolerability at site of injection and assessments of the knee joint (effusion/worsening of effusion).
# The safety analysis was based on the review of descriptive statistics and individual data for AEs, clinical laboratory, vital signs, and ECG parameters. Adverse events were coded according to the Medical Dictionary for Regulatory Activities (version 15.1) and the numbers of subjects with treatment-emergent AEs (TEAEs) were tabulated (counts and percents). For clinical laboratory, vital signs, and ECG data, the analyses of abnormalities were based on the definitions of potentially clinically significant abnormalities (PCSAs; definitions according to version 2.0 dated 14 Sep. 2009). Local tolerance/tolerability at the site of injection was summarized by descriptive statistics.
# patients with knee OA [3] = test: Clinical trial: WOMAC index scores after a single intra-articular dose in patients with knee OA; type: in vivo, human; conditions: Day 56; vs placebo; efficacy population (all patients); negative = positive effect of drug
# [4] = Day 56, efficacy population (all patients)
# [5] = Day 56, patients with effusion at baseline
structure (smiles),measurement,setting,value
"CNc1nccc(-c2cc3cc(C(=O)N[C@@H](CN(c4ccccc4)c4ncccn4)C(N)=O)ccc3[nH]2)n1 [Compound A, 2-(2-methylamino-pyrimidin-4-yl)-1H-indole-5-carboxylic acid [(S)-1-carbamoyl-2-(phenyl-pyrimidin-2-yl-amino)-ethyl]-amide]","Total WOMAC score, absolute change from baseline, Estimate",patients with knee OA [1]; [4],−10.5566
same,"WOMAC subscore for Pain, absolute change from baseline, Estimate",patients with knee OA [1]; [4],−1.8229
same,"WOMAC subscore for Physical function, absolute change from baseline, Estimate",patients with knee OA [1]; [4],−7.7966
same,"WOMAC subscore for Stiffness, absolute change from baseline, Estimate",patients with knee OA [1]; [4],−0.9406
same,"Total WOMAC score, absolute change from baseline, Estimate",patients with knee OA [1]; [5],−17.0761
same,"WOMAC subscore for Pain, absolute change from baseline, Estimate",patients with knee OA [1]; [5],−2.9701
same,"WOMAC subscore for Physical function, absolute change from baseline, Estimate",patients with knee OA [1]; [5],−12.9658
same,"WOMAC subscore for Stiffness, absolute change from baseline, Estimate",patients with knee OA [1]; [5],−1.1672
same,effect sizes for WOMAC subscores,"patients with knee OA [1]; Day 56, all patients, negative indicates a positive effect of drug against placebo",0.12 to −0.04
same,"Total WOMAC score, Compound A 60 mg vs Placebo, Estimate",patients with knee OA [1]; [4],1.0495
same,"WOMAC subscore for Pain, Compound A 60 mg vs Placebo, Estimate",patients with knee OA [1]; [4],0.4554
same,"WOMAC subscore for Physical function, Compound A 60 mg vs Placebo, Estimate",patients with knee OA [1]; [4],0.6854
same,"WOMAC subscore for Stiffness, Compound A 60 mg vs Placebo, Estimate",patients with knee OA [1]; [4],−0.0573
same,"Total WOMAC score, Compound A 60 mg vs Placebo, Estimate",patients with knee OA [1]; [5],−9.3562
same,"WOMAC subscore for Pain, Compound A 60 mg vs Placebo, Estimate",patients with knee OA [1]; [5],−1.7213
same,"WOMAC subscore for Physical function, Compound A 60 mg vs Placebo, Estimate",patients with knee OA [1]; [5],−6.8188
same,"WOMAC subscore for Stiffness, Compound A 60 mg vs Placebo, Estimate",patients with knee OA [1]; [5],−0.9028
same,"effect on WOMAC Pain subscores, other WOMAC subscores or Total score","patients with knee OA [1]; Day 56, efficacy population (all patients), 60 mg",neither a clinically significant nor a statistically significant effect
same,"WOMAC subscore for Stiffness, Effect size (90% CI)","patients with knee OA [1]; Day 56, efficacy population (all patients), negative = positive effect of drug",−0.04
same,"WOMAC subscore for Stiffness, Effect size (90% CI)",patients with knee OA [1]; [5],−0.71
same,efficacy on pain in patients with knee osteoarthritis and effusion (WOMAC assessment),patients with knee OA [1]; subgroup of patients with effusion at baseline,significant efficacy; also recorded: significant effect
same,"reported TEAEs and their severity, including local reactions at the injection site, vs placebo (0.9% saline)",patients with knee OA [2]; 60 mg single intra-articular dose,no difference between Compound A and placebo
same,tolerability of single doses,"patients with knee OA [2]; 60 mg single intra-articular dose, patients with knee OA",well tolerated
same,most frequent TEAE,"patients with knee OA [2]; after administration of Compound A or placebo, followed by injection site reactions",Arthralgia
same,"Total WOMAC score, Effect size (90% CI)",patients with knee OA [3],0.06
same,"WOMAC subscore for Pain, Effect size (90% CI)",patients with knee OA [3],0.12
same,"WOMAC subscore for Physical function, Effect size (90% CI)",patients with knee OA [3],0.06
